# Test results reported in ChEMBL document CHEMBL5331074, “Design and synthesis of new adamantyl derivatives as promising antiproliferative agents” (Eur J Med Chem, 2023).
# Columns and labels:
# [1] = system: K562; assay: Induction of apoptosis in human K562 cells assessed as fold increase in caspase 3/7 activity at 0.32 uM (reference value: 1.03 +/- 0.02); assay type: functional
# [2] = system: K562; assay: Induction of apoptosis in human K562 cells assessed as fold increase in caspase 3/7 activity at 0.64 uM (reference value: 1.03 +/- 0.02); assay type: functional
# [3] = Selectivity index, ratio of IC50 for cytotoxicity against human hTERT-HME1 cells to IC50 for cytotoxicity against human Hs-578T cells
# [4] = Selectivity index, ratio of IC50 for cytotoxicity against human F180 cells to IC50 for cytotoxicity against human UACC-257 cells
# [5] = system: CAKI-1; assay: Cytotoxicity against human CAKI-1 cells assessed as cell growth inhibition; assay type: functional, cell-based
# [6] = system: K562; assay: Induction of necrosis in human K562 cells assessed as LDH release at 0.64 uM (reference value: 0.20+/- 0.02%); assay type: functional
# [7] = Selectivity index, ratio of IC50 for cytotoxicity against human F180 cells to IC50 for cytotoxicity against human SK-MEL-5 cells
# [8] = system: Panel NCI-60 (60 carcinoma cell lines); assay: Cytotoxicity against human Panel NCI-60 (60 carcinoma cell lines) assessed as mean growth inhibition; assay type: functional
# [9] = molecular target: T1, Carbonic anhydrase 12 (Homo sapiens, UniProt O43570); assay: Inhibition of Carbonic anhydrase 12 (unknown origin) at 100 uM using p-nitrophenyl acetate as substrate preincubated for 10 mins followed by substrate addition and measured after 30 mins by microplate reader method relative to control; details: time 40.0 min
# T1 sequence (O43570 whole entry): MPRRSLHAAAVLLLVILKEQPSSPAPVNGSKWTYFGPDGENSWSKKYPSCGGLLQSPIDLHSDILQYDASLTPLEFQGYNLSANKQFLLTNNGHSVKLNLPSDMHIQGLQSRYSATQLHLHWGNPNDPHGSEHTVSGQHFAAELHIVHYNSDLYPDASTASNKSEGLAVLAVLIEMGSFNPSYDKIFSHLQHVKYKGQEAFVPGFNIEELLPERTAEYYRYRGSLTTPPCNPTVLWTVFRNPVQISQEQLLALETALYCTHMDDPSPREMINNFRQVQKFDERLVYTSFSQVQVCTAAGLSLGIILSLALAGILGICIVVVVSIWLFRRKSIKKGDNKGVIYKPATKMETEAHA
# [10] = molecular target: T2, Carbonic anhydrase 2 (Homo sapiens, UniProt P00918); assay: Inhibition of Carbonic anhydrase 2 (unknown origin) using p-nitrophenyl acetate as substrate preincubated for 10 mins followed by substrate addition and measured after 30 mins by microplate reader method
# [11] = system: HT-29; assay: Cytotoxicity against human HT-29 assessed as mean growth inhibition; assay type: functional
# [12] = system: K562; assay: Induction of necrosis in human K562 cells assessed as LDH release at 0.32 uM (reference value: 0.20+/- 0.02%); assay type: functional
# [13] = system: M14; assay: Cytotoxicity against human M14 cells assessed as cell growth inhibition; assay type: functional, cell-based
# [14] = system: K562; assay: Induction of necrosis in human K562 cells assessed as LDH release at 1.16 uM (reference value: 0.20+/- 0.02%); assay type: functional
# [15] = Selectivity index, ratio of IC50 for cytotoxicity against human F180 cells to IC50 for cytotoxicity against human UACC-62 cells
# [16] = Selectivity index, ratio of IC50 for cytotoxicity against human hTERT-HME1 cells to IC50 for cytotoxicity against human MCF7 cells; assay type: toxicity, cell-based; details: hTERT-HME1 cells and MCF7 cells, read-out: Ratio IC50
# [17] = Selectivity index, ratio of IC50 for cytotoxicity against human F180 cells to IC50 for cytotoxicity against human SK-MEL-28 cells
# [18] = system: K562; assay: Induction of necrosis in human K562 cells assessed as LDH release at 0.58 uM (reference value: 0.20+/- 0.02%); assay type: functional
# [19] = system: K562; assay: Induction of apoptosis in human K562 cells assessed as fold increase in caspase 3/7 activity at 0.58 uM (reference value: 1.03 +/- 0.02); assay type: functional
# [20] = system: MOLT-4; assay: Cytotoxicity against human MOLT-4 cells assessed as cell growth inhibition; assay type: functional, cell-based
# [21] = system: OVCAR-3; assay: Cytotoxicity against human OVCAR-3 cells assessed as cell growth inhibition; assay type: functional, cell-based
# [22] = molecular target: T1, Carbonic anhydrase 12; assay: Inhibition of Carbonic anhydrase 12 (unknown origin) using p-nitrophenyl acetate as substrate preincubated for 10 mins followed by substrate addition and measured after 30 mins by microplate reader method
# [23] = system: CCRF-CEM; assay: Cytotoxicity against human CCRF-CEM cells assessed as cell growth inhibition; assay type: functional, cell-based
# [24] = molecular target: T2, Carbonic anhydrase 2; assay: Inhibition of Carbonic anhydrase 2 (unknown origin) at 100 uM using p-nitrophenyl acetate as substrate preincubated for 10 mins followed by substrate addition and measured after 30 mins by microplate reader method relative to control; details: time 40.0 min
# [25] = system: K562; assay: Induction of apoptosis in human K562 cells assessed as fold increase in caspase 3/7 activity at 1.16 uM (reference value: 1.03 +/- 0.02); assay type: functional
structure (smiles),measurement,setting,value
O=C(Nc1ccc(OS(=O)(=O)c2ccccc2)cc1)C12CC3CC(CC(C3)C1)C2,fold change (FC),[1],2.05
same,fold change (FC),[2],3.7
same,Ratio IC50,[3],6.8
same,Ratio IC50,[4],3.7
same,IC50,[5],7.08 µM
same,Activity,[6],2.3%
same,Ratio IC50,[7],3.12
same,inhibition (INH),[8],44.5%
same,inhibition,[9],18.1%
same,IC50,[10],0.88 µM
same,inhibition (INH),[11],85.4%
same,Activity,[12],0.5%
same,IC50,[13],7.2 µM
O=C(Nc1ccc(OS(=O)(=O)c2ccc(F)cc2)cc1)C12CC3CC(CC(C3)C1)C2,Activity,[14],3.4%
same,Ratio IC50,[15],15.9
same,selectivity ratio,[16],84.7
same,Ratio IC50,[17],1.7
same,Activity,[18],1.8%
same,fold change (FC),[19],1.89
same,IC50,[20],5.05 µM
same,IC50,[21],6.05 µM
same,IC50,[22],0.68 µM
same,IC50,[23],3.73 µM
same,inhibition (INH),[11],63.5%
same,inhibition,[24],39.6%
same,fold change (FC),[25],2.72
same,IC50,[13],6.02 µM
